Converted amounts (≈) assume the structure as drawn. Read-outs that look alike come from different tables or passages of the source.
Tests used:
MT4 cells = test: Eukaryotic cell toxicity; type: cell-based, Human; conditions: 4 days
Procedure: (§1) Five eukaryotic cell lines were used to determine the cytotoxicity of the compounds: human embryonic lung (HEL) fibroblast cells, human cervixcarinoma-derived HeLa cells, human T-cell leukemia-derived MT4 cells, MDCK cells, and African Green monkey kidney-derived VERO cells. Semi-confluent cell cultures in 96-well plates were exposed to serial dilutions of the compounds or to medium (= no compound control), then incubated at 37°C. Four days later, the cells were inspected by microscopy to determine the MCC, that is, compound concentration that causes a microscopically detectable alteration of normal cell morphology. Next, the MTS cell viability reagent (CellTiter 96 AQueous MTS Reagent from Promega) was added. After 4 hours of incubation at 37°C, OD at 490 nm was recorded in a microplate reader.

[1] = Eukaryotic cell toxicity, MTS assay (CC50); type: cell-based, canine; conditions: dog, MDCK cells, MTS assay, 4 days; mean of 2 or 3 determinations; read-out: MDCK (CC50) in vitro cytotoxicity
Procedure: as §1

MRSA ATCC 33591 = test: Planktonic susceptibility (MIC/MBC), 96-well broth microdilution; type: cell-based, methicillin-resistant S. aureus; conditions: for antibacterial efficacy (in words): MRSA spp.; for MBC / MIC: Staphylococcus aureus, MRSA reference strain; for MIC: planktonic, overnight 37°C in MHB
Procedure: (§2) All bacterial strains subjected to testing had been stored at −70°C prior to the experiment. The experiment commenced by streaking small amounts of the frozen bacterial samples onto Muller-Hinton agar (MHA) culture medium (BD Bacto, Oxoid, Basingstoke, UK Cat# X296B) and allowing for overnight incubation. Bacteria were re-cultured on MHA plates as required to confirm colony morphology and lack of contamination. Strains tested were P. aeruginosa ATCC 27853, E. coli ATCC 25922, Staphylococcus aureus ATCC 25923, MRSA ATCC 33591, S. epidermidis ATCC 12228, Klebsiella pneumoniae ATCC, P. mirabilis ATCC 35659, and 10 clinical isolates of MRSA from Foothills Hospital, Calgary, Canada. To prepare for susceptibility testing, a protocol modified from Lemire et al was used ([28]). MHB was swab-inoculated from MHA colonies and shake-incubated until turbid. Dilution of the broth with 0.9% saline was performed as necessary to match a 1.0 McFarland standard.
MIC and MBC assessments were conducted on all bacterial strains using 96-well microtiter plates. To prepare the wells for bacteria, serial dilutions of the antibacterial agents were carried out along the rows of two microtiter plates. The antibacterials were 2-fold diluted with Mueller-Hinton broth (MHB) in each column, reaching a volume of 75 µL. The 1.0 McFarland standard was diluted 15-fold in MHB, and 75 µL of inoculum was added to the wells treated with antibacterials, resulting in a total volume of 150 µL. The microtiter plates were covered and then shake-incubated overnight at 150 rpm and 37°C. MIC was determined based on visible bacterial growth. […] MBC was determined by transferring 3 µL of culture from all MIC microtiter plate wells to 147 µL of Mueller-Hinton broth in fresh plates. These plates were shake-incubated overnight at 150 rpm and 37°C, and bacterial growth was visually inspected.

HeLa cells = test: Eukaryotic cell toxicity, microscopy (MCC); type: cell-based, Human; conditions: minimum concentration causing microscopically detectable alteration of cell morphology; 4 days
Procedure: as §1

HEL cells = test: Eukaryotic cell toxicity, microscopy (MCC); type: cell-based, Human; conditions: minimum concentration causing microscopically detectable alteration of cell morphology; 4 days
Procedure: as §1

[2] = tested on: S. epidermidis ATCC 12228; test: Planktonic susceptibility (MIC/MBC), 96-well broth microdilution; type: cell-based, Staphylococcus epidermidis; conditions: for MBC / MIC: Staphylococcus epidermidis; for MBC: ATCC12228; for MIC: ATCC12228, planktonic, overnight 37°C in MHB
Procedure: as §2
(§3) MIC and MBC assessments were conducted on all bacterial strains using 96-well microtiter plates. To prepare the wells for bacteria, serial dilutions of the antibacterial agents were carried out along the rows of two microtiter plates. The antibacterials were 2-fold diluted with Mueller-Hinton broth (MHB) in each column, reaching a volume of 75 µL. The 1.0 McFarland standard was diluted 15-fold in MHB, and 75 µL of inoculum was added to the wells treated with antibacterials, resulting in a total volume of 150 µL. The microtiter plates were covered and then shake-incubated overnight at 150 rpm and 37°C. MIC was determined based on visible bacterial growth. In cases of antibacterial opacity or ambiguous results, streaking of well cultures on MHA, overnight incubation, and subsequent comparison with controls were performed. MBC was determined by transferring 3 µL of culture from all MIC microtiter plate wells to 147 µL of Mueller-Hinton broth in fresh plates. These plates were shake-incubated overnight at 150 rpm and 37°C, and bacterial growth was visually inspected.

[3] = Eukaryotic cell toxicity, MTS assay (CC50); type: cell-based; conditions: African green monkey, Vero cells, mean of 2 or 3 determinations, read-out: Vero (CC50) in vitro cytotoxicity
Procedure: as §1

[4] = tested on: Klebsiella pneumoniae ATCC; test: Planktonic susceptibility (MIC/MBC), 96-well broth microdilution; type: cell-based; conditions: K. pneumonia; for MIC: planktonic, overnight 37°C in MHB
Procedure: as §2, §3

P. mirabilis ATCC 35659 = test: as above; type: cell-based; conditions: Proteus mirabilis; for MBC: ATCC35659; for MIC: ATCC35659, planktonic, overnight 37°C in MHB
Procedure: as §2, §3

[5] = tested on: Staphylococcus aureus ATCC 25923; test: as above; type: cell-based; conditions: S. aureus; for MBC / MIC: Staphylococcus aureus, ATCC25923; for MIC: planktonic, overnight 37°C in MHB
Procedure: as §2, §3

| SMILES | MT4 (MCC) in vitro cytotoxicity (MT4 cells) | CC50 at 4 days [1] | antibacterial efficacy (in words) (MRSA ATCC 33591) | MBC (MRSA ATCC 33591) | MIC (MRSA ATCC 33591) | HeLa (MCC) in vitro cytotoxicity (HeLa cells) | HEL (MCC) in vitro cytotoxicity (HEL cells) | antibacterial efficacy (in words) [2] | MBC [2] | MIC [2] | CC50 at 4 days [3] | MBC [4] | MIC [4] | MBC (P. mirabilis ATCC 35659) | MIC (P. mirabilis ATCC 35659) | antibacterial efficacy (in words) [5] | MBC [5] | MIC [5] |
| --- | --- | --- | --- | --- | --- | --- | --- | --- | --- | --- | --- | --- | --- | --- | --- | --- | --- | --- |
| O=C(Nc1ccc(Cl)cc1)Nc1cccc(S(F)(F)(F)(F)F)c1 [EBP-62, 1-(4-chlorophenyl)-3-(3-(pentafluoro-λ^6-sulfanyl)phenyl)urea] | 4.7 µM | 100 µM | effective | 76 µM (≈ 28.3 µg/mL) | 38 µM (≈ 14.2 µg/mL) | >4 µM | 20 µM | effective | 100 µM (≈ 37.3 µg/mL) | 20 µM (≈ 7.45 µg/mL) | > 4 µM | > 5000 µM | > 5000 µM | > 5000 µM | > 5000 µM | effective | 300 µM (≈ 112 µg/mL) | 0.3 µM (≈ 0.112 µg/mL) |
| O=C(Nc1ccc(S(F)(F)(F)(F)F)cc1)Nc1ccc(Cl)c(Cl)c1 [EBP-59] | 3.9 µM | ≥ 100 µM | effective | 20 µM (≈ 8.14 µg/mL) | 2.4 µM (≈ 0.977 µg/mL) | 4 µM | >4 µM | effective | 10 µM (≈ 4.07 µg/mL) | 4 µM (≈ 1.63 µg/mL) | > 4 µM | > 5000 µM | > 5000 µM | 2 µM (≈ 0.814 µg/mL) | 2 µM (≈ 0.814 µg/mL) | effective | 6.1 µM (≈ 2.48 µg/mL) | < 0.3 µM |
| O=C(Nc1ccc(Cl)cc1)Nc1ccc(S(F)(F)(F)(F)F)cc1 [EPB-61, 1-(4-Chlorophenyl)-3-(4-(pentafluoro-λ^6-sulfanyl)phenyl)urea] | 2.8 µM | ≥ 100 µM | effective | 300 µM (≈ 112 µg/mL) | 160 µM (≈ 59.6 µg/mL) | 4 µM | >4 µM | effective | 40 µM (≈ 14.9 µg/mL) | 1 µM (≈ 0.373 µg/mL) | > 4 µM | > 5000 µM | > 5000 µM | > 5000 µM | > 5000 µM | effective | 95 µM (≈ 35.4 µg/mL) | 9.5 µM (≈ 3.54 µg/mL) |

— PMC11237694, “Novel pentafluorosulfanyl-containing triclocarban analogs selectively kill Gram-positive bacteria” (Microbiology Spectrum, 2024)
